Laboratory results from US11492335B2, “Aryl or heteroaryl triazolone derivatives or salts thereof, or pharmaceutical compositions comprising the same” (YUHAN CORPORATION, priority 2018, dated 2022).
Where a name gives a salt, the structure may show the parent alone.

Legend:
Assay type in all cases: biochemical
[1] = molecular target: T1, recombinant human VAP-1 (Homo sapiens, UniProt Q16853); test: Activity on recombinant human VAP-1, Amplex Red HRP-coupled hydrogen peroxide assay, benzylamine substrate; conditions: recombinant human VAP-1, benzylamine substrate; read-out: Inhibitory Activity (IC50, nM) human VAP-1
T1 construct: purchased R&D systems
T1 sequence (Q16853 1-763): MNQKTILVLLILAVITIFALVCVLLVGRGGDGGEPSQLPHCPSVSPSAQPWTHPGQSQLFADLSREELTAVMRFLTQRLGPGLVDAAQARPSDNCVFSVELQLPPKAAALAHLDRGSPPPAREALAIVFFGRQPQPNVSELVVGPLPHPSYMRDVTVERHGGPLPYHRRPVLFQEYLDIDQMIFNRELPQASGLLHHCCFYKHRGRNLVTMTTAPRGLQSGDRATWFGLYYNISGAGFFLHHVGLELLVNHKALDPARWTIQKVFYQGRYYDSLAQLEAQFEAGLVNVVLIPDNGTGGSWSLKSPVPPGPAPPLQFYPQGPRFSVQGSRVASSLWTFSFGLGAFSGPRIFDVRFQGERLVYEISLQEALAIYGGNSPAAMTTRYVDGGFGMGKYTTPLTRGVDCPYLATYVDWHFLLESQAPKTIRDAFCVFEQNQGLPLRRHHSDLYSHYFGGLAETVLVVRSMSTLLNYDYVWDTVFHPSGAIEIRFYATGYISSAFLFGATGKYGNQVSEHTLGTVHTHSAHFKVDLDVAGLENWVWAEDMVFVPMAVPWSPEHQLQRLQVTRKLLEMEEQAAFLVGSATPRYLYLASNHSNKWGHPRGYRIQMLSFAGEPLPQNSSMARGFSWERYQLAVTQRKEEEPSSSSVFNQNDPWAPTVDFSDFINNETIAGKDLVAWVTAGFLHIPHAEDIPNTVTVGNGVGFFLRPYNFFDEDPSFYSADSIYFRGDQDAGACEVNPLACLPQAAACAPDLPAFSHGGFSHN
Outline: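 8-point 1:3 dilutions, final DMSO <1%; 30 min enzyme preincubation, 37 °C, pH 7.4 phosphate. Start: 1 mM benzylamine + 200 uM Amplex Red + 1 U/mL HRP. Read ex544/em590 over 1-2 h; % rate decrease vs DMSO control, 4-parameter logistic IC50.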

[2] = molecular target: T2, recombinant human MAO-B (monoamine oxidase-B) (Homo sapiens, UniProt P27338); test: Activity on recombinant human MAO-B, Amplex Red method, 1 mM benzylamine substrate; conditions: 1 mM benzylamine substrate, read-out: Inhibitory Activity (IC50, nM) MAO-B
T2 construct: purchased Sigma-Aldrich
T2 sequence (P27338 1-520): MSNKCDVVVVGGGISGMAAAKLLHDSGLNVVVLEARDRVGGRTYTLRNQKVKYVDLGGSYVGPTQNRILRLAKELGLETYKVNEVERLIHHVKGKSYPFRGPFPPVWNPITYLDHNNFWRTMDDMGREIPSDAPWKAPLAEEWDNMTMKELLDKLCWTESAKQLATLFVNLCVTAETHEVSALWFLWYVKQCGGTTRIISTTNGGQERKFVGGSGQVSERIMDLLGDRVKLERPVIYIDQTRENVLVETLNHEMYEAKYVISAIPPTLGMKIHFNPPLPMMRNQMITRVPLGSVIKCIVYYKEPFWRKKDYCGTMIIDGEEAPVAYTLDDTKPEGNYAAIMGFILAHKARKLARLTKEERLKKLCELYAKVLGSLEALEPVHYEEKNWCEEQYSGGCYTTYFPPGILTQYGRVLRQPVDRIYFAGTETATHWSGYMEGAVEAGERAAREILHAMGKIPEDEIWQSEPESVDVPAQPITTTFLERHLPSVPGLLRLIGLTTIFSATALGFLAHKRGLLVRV
Outline: (§1)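 HRP-coupled Amplex Red H2O2 assay, 50 mM sodium phosphate pH 7.4; compounds (8-point 1:3 series, final DMSO <1%) preincubated with enzyme 30 min at 37° C, then 200 uM Amplex Red, 1 U/mL HRP and substrate (MAO-A 0.5 mM tyramine; MAO-B 1 mM benzylamine) added. Resorufin fluorescence (ex 544/em 590 nm) read over 1-2 h; IC50 from four-parameter logistic fit.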

[3] = molecular target: T3, recombinant human MAO-A (monoamine oxidase-A) (Homo sapiens, UniProt P21397); test: Activity on recombinant human MAO-A, Amplex Red method, 0.5 mM tyramine substrate; conditions: 0.5 mM tyramine substrate, read-out: Inhibitory Activity (IC50, nM) MAO-A
T3 construct: purchased Sigma-Aldrich
T3 sequence (P21397 1-527): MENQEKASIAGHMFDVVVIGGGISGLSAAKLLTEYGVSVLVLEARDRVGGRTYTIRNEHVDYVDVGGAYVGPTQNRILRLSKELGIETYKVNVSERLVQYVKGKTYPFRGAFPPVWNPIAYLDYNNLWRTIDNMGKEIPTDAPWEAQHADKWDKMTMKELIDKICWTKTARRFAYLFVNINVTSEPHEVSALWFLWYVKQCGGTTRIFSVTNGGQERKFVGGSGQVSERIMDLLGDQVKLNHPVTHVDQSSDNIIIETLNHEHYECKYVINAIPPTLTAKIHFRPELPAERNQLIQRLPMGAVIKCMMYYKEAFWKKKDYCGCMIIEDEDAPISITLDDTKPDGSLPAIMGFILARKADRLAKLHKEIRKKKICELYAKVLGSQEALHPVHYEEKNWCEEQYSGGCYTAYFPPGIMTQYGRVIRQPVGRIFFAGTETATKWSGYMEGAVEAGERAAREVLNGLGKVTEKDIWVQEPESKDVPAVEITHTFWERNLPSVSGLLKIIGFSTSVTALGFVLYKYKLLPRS
Outline: as §1

[4] = molecular target: T4, recombinant human DAO (diamine oxidase) (Homo sapiens, UniProt P19801); test: Activity on recombinant human DAO, Amplex Red method, 1 mM putrescine substrate; conditions: recombinant human DAO, 1 mM putrescine substrate; read-out: Inhibitory Activity (IC50, nM) DAO
T4 construct: purchased R&D systems
T4 sequence (P19801 20-751): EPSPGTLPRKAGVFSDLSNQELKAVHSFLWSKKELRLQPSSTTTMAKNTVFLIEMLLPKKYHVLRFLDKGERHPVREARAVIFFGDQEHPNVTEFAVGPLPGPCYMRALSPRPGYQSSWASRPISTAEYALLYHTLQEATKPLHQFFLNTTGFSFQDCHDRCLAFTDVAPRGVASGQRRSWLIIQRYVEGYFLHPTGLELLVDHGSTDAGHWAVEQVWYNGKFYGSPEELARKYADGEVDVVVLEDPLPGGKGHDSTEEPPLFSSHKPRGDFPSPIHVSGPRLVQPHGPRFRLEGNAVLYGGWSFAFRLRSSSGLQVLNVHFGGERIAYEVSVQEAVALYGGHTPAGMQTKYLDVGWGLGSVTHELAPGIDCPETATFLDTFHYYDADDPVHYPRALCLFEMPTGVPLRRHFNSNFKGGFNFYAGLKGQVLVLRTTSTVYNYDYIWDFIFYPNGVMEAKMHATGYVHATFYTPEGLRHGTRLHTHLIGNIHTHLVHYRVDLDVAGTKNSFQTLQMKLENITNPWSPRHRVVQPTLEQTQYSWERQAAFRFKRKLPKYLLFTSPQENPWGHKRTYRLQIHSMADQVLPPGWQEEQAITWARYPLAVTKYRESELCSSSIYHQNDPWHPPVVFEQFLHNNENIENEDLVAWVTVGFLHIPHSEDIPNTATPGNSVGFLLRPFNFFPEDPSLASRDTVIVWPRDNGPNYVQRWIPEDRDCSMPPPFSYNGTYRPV
Outline: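 Inhibition of recombinant human DAO (diamine oxidase, R&D systems) was assessed with the Amplex Red Hydrogen Peroxide Assay Kit. Hydrogen peroxide produced from 1 mM putrescine was detected through an HRP-coupled reaction that converts Amplex Red into fluorescent resorufin, read at 544 nm excitation and 590 nm emission. IC50 values came from four-parameter logistic fits in GraphPad Prism.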

Structure (SMILES) | IC50 [1] | IC50 [2] | IC50 [3] | IC50 [4]
NC/C(=C\F)Cn1ncn(-c2cccc(/C=C/c3cnc4[nH]c(=O)oc4c3)n2)c1=O [Example 242, 6-[(E)-2-[6-[1-[(E)-2-(aminomethyl)-3-fluoro-allyl]-5-oxo-1,2,4-triazol-4-yl]-2-pyridyl]vinyl]-3H-oxazolo[4,5-b]pyridin-2-one hydrochloride] | 1.5 nM | > 10000 nM | > 100000 nM | 21 nM
NC/C(=C\F)Cn1ncn(-c2cccc(C#Cc3cccnc3)c2)c1=O [Example 243, 2-[(2E)-2-(aminomethyl)-3-fluoroprop-2-en-1-yl]-4-[3-(pyridin-3-ylethynyl)phenyl]-2,4-dihydro-3H-1,2,4-triazol-3-one hydrochloride] | 0.6 nM | 940 nM | > 100000 nM | 18 nM
NC/C(=C\F)Cn1ncn(-c2cc(C#Cc3ccccn3)ccn2)c1=O [Example 244, 2-[(2E)-2-(aminomethyl)-3-fluoroprop-2-en-1-yl]-4-[4-(pyridin-2-ylethynyl)pyridin-2-yl]-2,4-dihydro-3H-1,2,4-triazol-3-one hydrochloride] | 0.8 nM | 100 nM | > 100000 nM | 12 nM
NC/C(=C\F)Cn1ncn(-c2cc(C#Cc3cccnc3)ccn2)c1=O [Example 245, 2-[(2E)-2-(aminomethyl)-3-fluoroprop-2-en-1-yl]-4-[4-(pyridin-3-ylethynyl)pyridin-2-yl]-2,4-dihydro-3H-1,2,4-triazol-3-one hydrochloride] | 0.9 nM | 300 nM | > 100000 nM | 11 nM
NC/C(=C\F)Cn1ncn(-c2cccc(C#Cc3ccc4c(c3)NCCO4)n2)c1=O [Example 250, 2-[(E)-2-(aminomethyl)-3-fluoro-allyl]-4-[6-[2-(3,4-dihydro-2H-1,4-benzoxazin-6-yl)ethynyl]-2-pyridyl]-1,2,4-triazol-3-one] | 0.7 nM | > 10000 nM | > 100000 nM | 74 nM
NC/C(=C\F)Cn1ncn(-c2cccc(C#Cc3cnc4c(c3)OCCN4)n2)c1=O [Example 252, 2-[(E)-2-(aminomethyl)-3-fluoro-allyl]-4-[6-[2-(3,4-dihydro-2H-pyrido[3,2-b][1,4]oxazin-7-yl)ethynyl]-2-pyridyl]-1,2,4-triazol-3-one] | 0.6 nM | > 10000 nM | > 100000 nM | 53 nM

Stronger by IC50 [1], values ahead:

IC50 [1] | IC50 [2] | IC50 [3] | IC50 [4] | Structure (SMILES)
0.5 nM | 130 nM | > 100000 nM | 12 nM | NC/C(=C\F)Cn1ncn(-c2cc(C#Cc3ccncc3)ccn2)c1=O [Example 246, 2-[(2E)-2-(aminomethyl)-3-fluoroprop-2-en-1-yl]-4-[4-(pyridin-4-ylethynyl)pyridin-2-yl]-2,4-dihydro-3H-1,2,4-triazol-3-one hydrochloride]
0.5 nM | > 10000 nM | > 100000 nM | 36 nM | CN(C)c1ccc(C#Cc2cccc(-n3cnn(C/C(=C/F)CN)c3=O)n2)cn1 [Example 248, 2-[(E)-2-(aminomethyl)-3-fluoro-allyl]-4-[6-[2-[6-(dimethylamino)-3-pyridyl]ethynyl]-2-pyridyl]-1,2,4-triazol-3-one]
0.5 nM | > 10000 nM | > 100000 nM | 34 nM | NC/C(=C\F)Cn1ncn(-c2cccc(C#Cc3ccc4c(n3)OCCN4)n2)c1=O [Example 253, 2-[(E)-2-(aminomethyl)-3-fluoro-allyl]-4-[6-[2-(2,3-dihydro-1H-pyrido[2,3-b][1,4]oxazin-6-yl)ethynyl]-2-pyridyl]-1,2,4-triazol-3-one]
0.4 nM | 2000 nM | > 100000 nM | 8 nM | NC/C(=C\F)Cn1ncn(-c2cccc(C#Cc3ccc(N4CCOCC4)nc3)n2)c1=O [Example 249, 2-[(E)-2-(aminomethyl)-3-fluoro-allyl]-4-[6-[2-(6-morpholino-3-pyridyl)ethynyl]-2-pyridyl]-1,2,4-triazol-3-one]
0.3 nM | 4300 nM | > 100000 nM | 14 nM | COc1ccc(C#Cc2cccc(-n3cnn(C/C(=C/F)CN)c3=O)n2)cn1 [Example 247, 2-[(2E)-2-(aminomethyl)-3-fluoroprop-2-en-1-yl]-4-{6-[(6-methoxypyridin-3-yl)ethynyl]pyridin-2-yl}-2,4-dihydro-3H-1,2,4-triazol-3-one]
0.3 nM | > 10000 nM | > 100000 nM | 21 nM | NC/C(=C\F)Cn1ncn(-c2cccc(C#Cc3cnc4c(c3)NCCO4)n2)c1=O [Example 251, 2-[(E)-2-(aminomethyl)-3-fluoro-allyl]-4-[6-[2-(2,3-dihydro-1H-pyrido[2,3-b][1,4]oxazin-7-yl)ethynyl]-2-pyridyl]-1,2,4-triazol-3-one]
0.2 nM | > 10000 nM | > 100000 nM | 35 nM | NC/C(=C\F)Cn1ncn(-c2cccc(C#Cc3ccc4c(c3)CCC(=O)N4)n2)c1=O [Example 254, 6-[2-[6-[1-[(E)-2-(aminomethyl)-3-fluoro-allyl]-5-oxo-1,2,4-triazol-4-yl]-2-pyridyl]ethynyl]-3,4-dihydro-1H-quinolin-2-one]
